One assay has as its target T1, SIK3 (Homo sapiens, UniProt Q9Y2K2).
T1 construct: purchased SignalChem S12-11G-100
The experiment in a line: ADP-Glo kinase assay, SIK3. It counts as biochemical. The gist of the method: (§1)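 Luminescent ADP-formation read-out: enzyme–substrate mix + ATP, 120 min RT; ATP depletion 40 min RT; ADP→ATP conversion with luciferase/luciferin 30 min RT. Controls: 1% DMSO (negative), 10 μM staurosporine final (positive).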
In general terms: ADP-Glo turns the ADP formed in a reaction into a luminescent signal.

Assay [1] concerns LPS-induced TNFα in monocytes. Description: Monocytes assay: LPS-triggered TNFα (ELISA). The format is cell-based, human. To be noted: Homo sapiens, Monocyte, LPS-triggered TNFα inhibition. The procedure:
This assay evaluates illustrative compounds of the invention for their inhibition of LPS-induced TNFα and LPS triggered IL-10 secretion in monocytes.
PBMCs are isolated from human blood samples (buffycoats). The buffy coat is aseptically transferred into a 50 mL Falcon tube, and diluted 1/2 in PBS. Falcon tubes are filled with 20 mL Lymphoprep™, on top of which 25 mL of the buffy coat is carefully added, tubes are centrifuged for 35 min at 400 g in temperature controlled centrifuge, without brake, at 25° C. PBMCs are aspirated from the white interface layer between sample and Lymphoprep™. PBMCs are washed five times in PBS.
PBMCs are centrifuged at 300×g for 10 min and resuspended at a density of 1.0*10^7 cells/80 μL Miltenyi buffer (PBS, pH 7.4, 1% FBS, 2 mM EDTA).
Starting from this point of the protocol all steps are performed on ice. 20 μL of CD14+ micro-beads are added per 1.0*10^7 cells, the tube is mixed and incubated for 15 min in the fridge at 4° C. Cell suspension volume is adjusted to total volume of 100 mL using Miltenyi buffer, mixed gently and subsequently centrifuged for 10 min at 300×g. Supernatant is discarded and cell pellet is resuspended in 12 mL of Miltenyi buffer.
Four LS columns are placed in the MACS Separator (magnet) from Miltenyi Biotec, and are prewet by rinsing with 3 mL of MACS buffer per column. Three mL of cell suspension is added onto the column (max 1*10^8 of labelled cells/column), and columns are subsequently washed 3 times with 3 mL of Miltenyi buffer.
The columns are removed from the magnets, and 5 mL of Miltenyi buffer are added to the column to flush out the CD14+ fraction by pushing the plunger into the column. The flushed fractions are collected in a fresh 50 mL Falcon and volume is adjusted to 30 mL using Miltenyi buffer, cells are centrifuged for 10 min at 300×g. The obtained cell pellet is resuspended in 10 mL RPMI w/o FBS, and cell density is determined using a hematologic analyser (Sysmex XS-500i).
A compound dilution plate is made in 100% DMSO by 3-fold dilution of 10 mM stock solution. An intermediate dilution plate (10× final concentration) is made by diluting the compound dilution plate 50-fold in RPMI medium.
10 μL of the 10× final concentration compound is added to the cells and incubated for 1 h at 37° C. before addition of trigger. No trigger conditions/trigger conditions are spiked with equal final DMSO concentrations of 0.2% DMSO. 10 μL of 10×LPS (final conc. 200 ng/mL) solution are added to all wells except for the ‘no trigger wells’ where 10 μL medium is added. Supernatant is collected after 4 h of LPS triggering.
The plate is then washed once with PBST (PBS+0.05% Tween20) and once with PBS followed by the addition of 100 μL of blocking buffer (1% Bovine Serum Albumin (BSA)-5% Sucrose) and plates are sealed and incubated for at least 4 h at RT. After washing the plate once with PBST and once with PBS, […]. Plates are washed twice with PBST, and once with PBS, after which 35 μL of the detection antibody is added (final concentration 0.25 μg/mL diluted in dilution buffer) and plates are incubated for at least 2 h at RT. Plates are washed twice with PBST, and once with PBS, whereafter 35 μL of Strep-HRP conjugate (0.5 μg/mL final concentration diluted in dilution buffer) is added. Plates are incubated in the dark, at RT for at least 45 min but no longer than 1 h. Plates are washed twice with PBST, and once with PBS. Thereafter, 50 μL of luminol substrate is added to each well (prepared according to manufacturer's instructions), and incubated for 5 min at RT protected from light.
To measure the inhibition of LPS induced TNFα, percentage inhibition (PIN) values are calculated for all concentrations tested, compared to controls.
On the technique in general: In an ELISA, binding on a coated surface is turned into a signal by an enzyme label.

The next assay deals with T2, SIK2 (Homo sapiens, UniProt Q9H0K1).
T2 construct: purchased ThermoFisher Scientific PV4792
Description: ADP-Glo kinase assay, SIK2. It counts as biochemical. The procedure, abridged: as §1

The next assay concerns the target T3, SIK1 (Homo sapiens, UniProt P57059).
T3 construct: purchased Carna Biosciences 02-131
Description: ADP-Glo kinase assay, SIK1. The format is biochemical. The gist of the method: as §1

Among the data in patent US12391679B2, “Benzamide-substituted bicyclic imidazo- and pyrazolo-fused -pyridine, -pyrimide, and -pyridazine compounds for treatment of inflammatory diseases” (ONCO3R Therapeutics BV, priority 2019, dated 2025) are IC50 and EC50 values, retold here.

Molecules are shown by their SMILES. pEC50, pIC50: −log10 of the molar value.

T2 sequence (Q9H0K1 whole entry): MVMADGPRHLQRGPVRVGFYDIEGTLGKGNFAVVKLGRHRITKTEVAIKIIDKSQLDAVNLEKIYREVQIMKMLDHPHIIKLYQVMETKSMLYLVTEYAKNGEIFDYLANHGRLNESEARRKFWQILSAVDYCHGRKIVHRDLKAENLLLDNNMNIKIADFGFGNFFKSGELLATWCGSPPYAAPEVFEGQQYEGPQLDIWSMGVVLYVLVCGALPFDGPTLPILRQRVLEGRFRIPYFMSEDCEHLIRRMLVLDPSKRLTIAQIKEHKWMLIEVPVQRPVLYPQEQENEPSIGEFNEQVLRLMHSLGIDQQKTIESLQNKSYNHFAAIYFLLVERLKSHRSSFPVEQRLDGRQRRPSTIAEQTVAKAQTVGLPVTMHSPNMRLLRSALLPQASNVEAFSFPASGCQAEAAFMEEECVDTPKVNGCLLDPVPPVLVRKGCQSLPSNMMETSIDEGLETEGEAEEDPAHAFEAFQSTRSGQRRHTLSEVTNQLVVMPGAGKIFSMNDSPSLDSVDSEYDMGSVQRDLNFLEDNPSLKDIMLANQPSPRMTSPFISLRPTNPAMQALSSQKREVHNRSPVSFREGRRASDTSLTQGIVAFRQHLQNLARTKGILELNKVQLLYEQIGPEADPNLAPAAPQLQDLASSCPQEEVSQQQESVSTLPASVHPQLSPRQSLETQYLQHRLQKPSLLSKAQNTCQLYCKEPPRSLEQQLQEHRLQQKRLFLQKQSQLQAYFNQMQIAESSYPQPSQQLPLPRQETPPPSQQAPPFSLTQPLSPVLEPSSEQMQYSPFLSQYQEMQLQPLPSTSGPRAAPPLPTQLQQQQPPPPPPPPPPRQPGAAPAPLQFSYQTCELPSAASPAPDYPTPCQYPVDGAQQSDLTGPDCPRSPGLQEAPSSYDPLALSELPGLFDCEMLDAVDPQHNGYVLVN
T1 sequence (Q9Y2K2 59-365 limits assumed): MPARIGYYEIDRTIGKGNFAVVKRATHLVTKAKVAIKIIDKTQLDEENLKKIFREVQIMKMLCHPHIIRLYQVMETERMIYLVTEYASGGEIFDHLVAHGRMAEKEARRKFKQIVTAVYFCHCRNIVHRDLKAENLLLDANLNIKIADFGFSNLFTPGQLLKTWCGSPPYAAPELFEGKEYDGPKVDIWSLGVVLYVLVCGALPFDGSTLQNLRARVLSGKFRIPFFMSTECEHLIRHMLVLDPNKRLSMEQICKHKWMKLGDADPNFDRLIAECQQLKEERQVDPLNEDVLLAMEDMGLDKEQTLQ
T3 sequence (P57059 whole entry): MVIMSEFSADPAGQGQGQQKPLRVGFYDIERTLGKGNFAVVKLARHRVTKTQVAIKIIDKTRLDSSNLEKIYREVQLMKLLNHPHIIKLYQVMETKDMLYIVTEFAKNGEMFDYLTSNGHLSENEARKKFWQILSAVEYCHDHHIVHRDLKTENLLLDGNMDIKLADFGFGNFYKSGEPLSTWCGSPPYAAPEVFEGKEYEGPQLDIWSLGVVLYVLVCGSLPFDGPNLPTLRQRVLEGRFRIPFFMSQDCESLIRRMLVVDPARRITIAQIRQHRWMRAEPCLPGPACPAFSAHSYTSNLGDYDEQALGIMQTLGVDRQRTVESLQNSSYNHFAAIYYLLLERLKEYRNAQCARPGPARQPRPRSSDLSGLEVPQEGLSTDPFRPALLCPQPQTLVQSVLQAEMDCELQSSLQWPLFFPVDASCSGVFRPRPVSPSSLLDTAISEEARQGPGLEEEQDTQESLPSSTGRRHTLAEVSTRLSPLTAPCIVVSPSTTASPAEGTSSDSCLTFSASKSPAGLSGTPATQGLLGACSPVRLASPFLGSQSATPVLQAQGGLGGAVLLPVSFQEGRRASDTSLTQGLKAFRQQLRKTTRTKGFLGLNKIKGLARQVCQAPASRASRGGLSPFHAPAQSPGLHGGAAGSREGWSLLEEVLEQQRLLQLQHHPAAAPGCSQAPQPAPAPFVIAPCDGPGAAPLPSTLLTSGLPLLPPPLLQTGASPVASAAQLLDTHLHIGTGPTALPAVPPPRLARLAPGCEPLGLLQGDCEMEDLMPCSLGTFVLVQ

Turning to `COc1cc(-c2cnc3cc(C4(O)COC4)ccn23)cc(OC(F)F)c1C(=O)N[C@@H]1C[C@@H]1F` [Cpd 223, 2-(difluoromethoxy)-N-[(1R,2S)-2-fluorocyclopropyl]-4-[7-(3-hydroxyoxetan-3-yl)imidazo[1,2-a]pyridin-3-yl]-6-methoxy-benzamide], the pIC50 (usually the negative decadic logarithm of the IC50, by convention in mol/L) was 7.00 to 8.00 against SIK3, 6.30 to 7.00 at SIK2 and less than 6.30 against SIK1. In addition, the pEC50 (as a rule, the negative decadic logarithm of the EC50, by convention in mol/L) in assay [1] is 6.00 to 7.00.

With `COc1cc(-c2cnc3cc(C4(O)CCOC4)ccn23)cc(OC(F)F)c1C(=O)NC1CC1` (centres unmarked) [Cpd 213, N-cyclopropyl-2-(difluoromethoxy)-4-[7-(3-hydroxytetrahydrofuran-3-yl)imidazo[1,2-a]pyridin-3-yl]-6-methoxy-benzamide], the figures for the pIC50 against SIK3, against SIK2 and at SIK1 were 7.00 to 8.00, less than 6.30 and less than 6.30, respectively. The pEC50 in assay [1] was 6.00 to 7.00.

For `COc1cc(-c2cnn3cc(C(C)(C)COCC(=O)N(C)C)ccc23)cc(OC(F)F)c1C(=O)N[C@@H]1C[C@@H]1F` [Cpd 251, 2-(difluoromethoxy)-4-[6-[2-[2-(dimethylamino)-2-oxo-ethoxy]-1,1-dimethyl-ethyl]pyrazolo[1,5-a]pyridin-3-yl]-N-[(1R,2S)-2-fluorocyclopropyl]-6-methoxy-benzamide], the figures for the pIC50 against SIK3, at SIK2 and on SIK1 were 8.00 to 11.00, less than 6.30 and less than 6.30, respectively. The pEC50 in assay [1] was 6.00 to 7.00.

For `COc1cc(-c2cnc3cc(C(C)(C)C4CCO4)ccn23)cc(OC(F)F)c1C(=O)NC1CC1` (centres unmarked) [Cpd 229, N-cyclopropyl-2-(difluoromethoxy)-6-methoxy-4-[7-[1-methyl-1-(oxetan-2-yl)ethyl]imidazo[1,2-a]pyridin-3-yl]benzamide], the values for the pIC50 on SIK3, on SIK2 and against SIK1 were 7.00 to 8.00, less than 6.30 and less than 6.30, respectively. In assay [1], this compound had a pEC50 of 6.00 to 7.00.

Consider `COc1cc(-c2cnc3cc(C4(C#N)CN(C)C4)ccn23)cc(OC(F)F)c1C(=O)NC1CC1` [Cpd 121, 4-[7-(3-cyano-1-methyl-azetidin-3-yl)imidazo[1,2-a]pyridin-3-yl]-N-cyclopropyl-2-(difluoromethoxy)-6-methoxy-benzamide], for which the pIC50 is 7.00 to 8.00 against SIK3, less than 6.30 against SIK2 and less than 6.30 at SIK1. Moreover, in assay [1], the pEC50 is 5.30 to 6.00.

Regarding `COc1cc(-c2cnc3cc(C(C)(C)C#N)ccn23)cc(OC(F)F)c1C(=O)N1CC(O)C1` [Cpd 50, 2-[3-[3-(difluoromethoxy)-4-(3-hydroxyazetidine-1-carbonyl)-5-methoxy-phenyl]imidazo[1,2-a]pyridin-7-yl]-2-methyl-propanenitrile], the pIC50 on SIK3 was 6.30 to 7.00; on SIK2, less than 6.30; at SIK1, less than 6.30.

`COc1cc(-c2cnc3cc(C(C)(C)C#N)ccn23)cc(OC(F)F)c1C(=O)NCC(C)C` [Cpd 72, 4-[7-(1-cyano-1-methyl-ethyl)imidazo[1,2-a]pyridin-3-yl]-2-(difluoromethoxy)-N-isobutyl-6-methoxy-benzamide]: the pIC50 against SIK3 is 7.00 to 8.00; on SIK2, less than 6.30; at SIK1 it was less than 6.30.

Take `COc1cc(-c2cnc3cc(C4(C)CN(C)CCO4)ccn23)cc(OC(F)F)c1C(=O)NC1CC1` (centres unmarked) [Cpd 210, N-cyclopropyl-2-(difluoromethoxy)-4-[7-(2,4-dimethylmorpholin-2-yl)imidazo[1,2-a]pyridin-3-yl]-6-methoxy-benzamide]: the pIC50 at SIK3 was 7.00 to 8.00; at SIK2, less than 6.30; at SIK1 it was less than 6.30.

As for `COc1cc(-c2cnc3cc(C4COCCN4)ccn23)cc(OC(F)F)c1C(=O)NC1CC1` (centres unmarked) [Cpd 187, N-cyclopropyl-2-(difluoromethoxy)-6-methoxy-4-(7-morpholin-3-ylimidazo[1,2-a]pyridin-3-yl)benzamide], the pIC50 against SIK3 is 7.00 to 8.00; against SIK2 it was less than 6.30; against SIK1, less than 6.30.

In the case of `CCNC(=O)C(C)(C)c1ccc2c(-c3cc(OC)c(C(=O)NC4CC4)c(OC(F)F)c3)cnn2c1` [Cpd 249, N-cyclopropyl-2-(difluoromethoxy)-4-[6-[2-(ethylamino)-1,1-dimethyl-2-oxo-ethyl]pyrazolo[1,5-a]pyridin-3-yl]-6-methoxy-benzamide], the results for the pIC50 against SIK3, against SIK2 and against SIK1 were 7.00 to 8.00, less than 6.30 and less than 6.30, respectively.

Regarding `COc1cc(-c2cnc3cc(C4CCN4C)ccn23)cc(OC(F)F)c1C(=O)NC1CC1` (centres unmarked) [Cpd 204, N-cyclopropyl-2-(difluoromethoxy)-6-methoxy-4-[7-(1-methylazetidin-2-yl)imidazo[1,2-a]pyridin-3-yl]benzamide], the pIC50 against SIK3 was 7.00 to 8.00; on SIK2, less than 6.30; on SIK1, less than 6.30.

Turning to `COCCN1CCCC1c1ccn2c(-c3cc(OC)c(C(=O)NC4CC4)c(OC(F)F)c3)cnc2c1` (centres unmarked) [Cpd 196, N-cyclopropyl-2-(difluoromethoxy)-6-methoxy-4-[7-[1-(2-methoxyethyl)pyrrolidin-2-yl]imidazo[1,2-a]pyridin-3-yl]benzamide], the pIC50 on SIK3 is 7.00 to 8.00; against SIK2 it was 7.00 to 8.00; against SIK1, 6.30 to 7.00.

As to `CCCCOC(=O)NC(C)(C)c1ccc2c(-c3cc(OC)c(C(=O)N[C@@H]4C[C@@H]4F)c(OC(F)F)c3)cnn2c1` [Cpd 264, butyl N-[1-[3-[3-(difluoromethoxy)-4-[[(1R,2S)-2-fluorocyclopropyl]carbamoyl]-5-methoxy-phenyl]pyrazolo[1,5-a]pyridin-6-yl]-1-methyl-ethyl]carbamate], the pIC50 on SIK3 is 7.00 to 8.00; at SIK2 it was less than 6.30; against SIK1 it was less than 6.30.

With `COc1cc(-c2cnn3cc(C4(NCC(F)F)CCC4)ccc23)cc(OC(F)F)c1C(=O)N[C@@H]1C[C@@H]1F` [Cpd 271, 4-[6-[1-(2,2-difluoroethylamino)cyclobutyl]pyrazolo[1,5-a]pyridin-3-yl]-2-(difluoromethoxy)-N-[(1R,2S)-2-fluorocyclopropyl]-6-methoxy-benzamide], the pIC50 on SIK3 is 7.00 to 8.00; against SIK2 it was less than 6.30; against SIK1, less than 6.30.

Consider `COc1cc(-c2cnc3cc(C4CCNCC4)ccn23)cc(OC(F)F)c1C(=O)NC1CC1` [Cpd 66, N-cyclopropyl-2-(difluoromethoxy)-6-methoxy-4-[7-(4-piperidyl)imidazo[1,2-a]pyridin-3-yl]benzamide], for which the values for the pIC50 against SIK3, against SIK2 and against SIK1 were 7.00 to 8.00, 7.00 to 8.00 and less than 6.30, respectively.

On to `COc1cc(-c2cnc3cc(C(C)(C)C#N)ccn23)cc(OC(F)F)c1C(=O)N1CC(CO)C1` [Cpd 97, 2-[3-[3-(difluoromethoxy)-4-[3-(hydroxymethyl)azetidine-1-carbonyl]-5-methoxy-phenyl]imidazo[1,2-a]pyridin-7-yl]-2-methyl-propanenitrile], for which the pIC50 on SIK3 is 7.00 to 8.00; on SIK2, less than 6.30; at SIK1, less than 6.30.

For the compound `COc1cc(-c2cnc3cc(C(C)(C)C#N)ccn23)cc(OC(F)F)c1C(=O)N1CCC1C` (centres unmarked) [Cpd 104, 2-[3-[3-(difluoromethoxy)-5-methoxy-4-(2-methylazetidine-1-carbonyl)phenyl]imidazo[1,2-a]pyridin-7-yl]-2-methyl-propanenitrile], the pIC50 at SIK3, against SIK2 and on SIK1 was less than 6.30 throughout.
